# According to ChEMBL document CHEMBL1201862, “PubChem BioAssay data set” (2004):
#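 Values below derive from 48-hour exposures of cells grown in 96-well plates, with endpoints linearly interpolated between the two concentrations bracketing the appropriate inhibition level. GI50: concentration for 50% inhibition of growth.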 Activity calls are given as the source filed them. No stated cut-off is given here; in the data, active = GI50 up to about 1.1 µM and inactive = higher.
# Experiments:
# Experiment in all cases: DTP human tumour cell line panel, 48 h
# 786-0 = tested on: 786-0
# A549 = tested on: A549
# ACHN = tested on: ACHN
# BT-549 = tested on: BT-549
# CAKI-1 = tested on: CAKI-1
# COLO 205 = tested on: COLO 205
# DU-145 = tested on: DU-145
# EKVX = tested on: EKVX
# HCC 2998 = tested on: HCC 2998
# HCT-116 = tested on: HCT-116
# HCT-15 = tested on: HCT-15
# HOP-62 = tested on: HOP-62
# HT-29 = tested on: HT-29
# Hs-578T = tested on: Hs-578T
# IGROV-1 = tested on: IGROV-1
# K562 = tested on: K562
# KM12 = tested on: KM12
# LOX IMVI = tested on: LOX IMVI
# M14 = tested on: M14
# MCF7 = tested on: MCF7
# MDA-MB-231 = tested on: MDA-MB-231
# MDA-MB-435 = tested on: MDA-MB-435
# MDA-N = tested on: MDA-N
# MOLT-4 = tested on: MOLT-4
# Malme-3M = tested on: Malme-3M
# NCI-H226 = tested on: NCI-H226
# NCI-H23 = tested on: NCI-H23
# NCI-H460 = tested on: NCI-H460
# NCI/ADR-RES = tested on: NCI/ADR-RES
# OVCAR-3 = tested on: OVCAR-3
# OVCAR-4 = tested on: OVCAR-4
# OVCAR-5 = tested on: OVCAR-5
# OVCAR-8 = tested on: OVCAR-8
# PC-3 = tested on: PC-3
# RPMI-8226 = tested on: RPMI-8226
# SF-268 = tested on: SF-268
# SF-295 = tested on: SF-295
# SF-539 = tested on: SF-539
# SK-MEL-28 = tested on: SK-MEL-28
# SK-MEL-2 = tested on: SK-MEL-2
# SK-MEL-5 = tested on: SK-MEL-5
# SK-OV-3 = tested on: SK-OV-3
# SN12C = tested on: SN12C
# SNB-19 = tested on: SNB-19
# SNB-75 = tested on: SNB-75
# SR = tested on: SR
# SW-620 = tested on: SW-620
# T47D = tested on: T47D
# TK-10 = tested on: TK-10
# U-251 = tested on: U-251
# UACC-257 = tested on: UACC-257
# UACC-62 = tested on: UACC-62
# UO-31 = tested on: UO-31
# HOP-92 = tested on: HOP-92
# NCI-H522 = tested on: NCI-H522
# RXF 393 = tested on: RXF 393
# A498 = tested on: A498
# CCRF-CEM = tested on: CCRF-CEM
# HL-60 = tested on: HL-60
smiles,measurement,setting,value
C[n+]1c2ccccc2c(C(=O)Nc2ccc(S(=O)(=O)Nc3ccnn3-c3ccccc3)cc2)c2ccccc21,GI50,786-0,> 100 µM (inactive)
same,GI50,A549,> 100 µM (inactive)
same,GI50,ACHN,> 100 µM (inactive)
same,GI50,BT-549,> 100 µM (inactive)
same,GI50,CAKI-1,> 100 µM (inactive)
same,GI50,COLO 205,> 100 µM (inactive)
same,GI50,DU-145,> 100 µM (inactive)
same,GI50,EKVX,> 100 µM (inactive)
same,GI50,HCC 2998,> 100 µM (inactive)
same,GI50,HCT-116,> 100 µM (inactive)
same,GI50,HCT-15,> 100 µM
same,GI50,HOP-62,> 100 µM (inactive)
same,GI50,HT-29,> 100 µM (inactive)
same,GI50,Hs-578T,> 100 µM (inactive)
same,GI50,IGROV-1,> 100 µM (inactive)
same,GI50,K562,> 100 µM (inactive)
same,GI50,KM12,> 100 µM (inactive)
same,GI50,LOX IMVI,> 100 µM (inactive)
same,GI50,M14,> 100 µM (inactive)
same,GI50,MCF7,> 100 µM (inactive)
same,GI50,MDA-MB-231,> 100 µM (inactive)
same,GI50,MDA-MB-435,> 100 µM (inactive)
same,GI50,MDA-N,> 100 µM (inactive)
same,GI50,MOLT-4,> 100 µM (inactive)
same,GI50,Malme-3M,> 100 µM (inactive)
same,GI50,NCI-H226,> 100 µM (inactive)
same,GI50,NCI-H23,> 100 µM (inactive)
same,GI50,NCI-H460,> 100 µM (inactive)
same,GI50,NCI/ADR-RES,20.7 µM (inactive)
same,GI50,OVCAR-3,> 100 µM (inactive)
same,GI50,OVCAR-4,> 100 µM (inactive)
same,GI50,OVCAR-5,> 100 µM (inactive)
same,GI50,OVCAR-8,> 100 µM (inactive)
same,GI50,PC-3,> 100 µM (inactive)
same,GI50,RPMI-8226,> 100 µM (inactive)
same,GI50,SF-268,> 100 µM (inactive)
same,GI50,SF-295,> 100 µM (inactive)
same,GI50,SF-539,> 100 µM (inactive)
same,GI50,SK-MEL-28,> 100 µM (inactive)
same,GI50,SK-MEL-2,> 100 µM (inactive)
same,GI50,SK-MEL-5,69.2 µM (inactive)
same,GI50,SK-OV-3,> 100 µM (inactive)
same,GI50,SN12C,> 100 µM (inactive)
same,GI50,SNB-19,> 100 µM (inactive)
same,GI50,SNB-75,> 100 µM (inactive)
same,GI50,SR,> 100 µM (inactive)
same,GI50,SW-620,> 100 µM (inactive)
same,GI50,T47D,> 100 µM (inactive)
same,GI50,TK-10,> 100 µM (inactive)
same,GI50,U-251,> 100 µM (inactive)
same,GI50,UACC-257,> 100 µM (inactive)
same,GI50,UACC-62,> 100 µM (inactive)
same,GI50,UO-31,> 100 µM (inactive)
O=C(c1ccccc1)N1C(=S)N(c2ccc([N+](=O)[O-])cc2)C(=N/c2ccccc2)/C1=N\c1ccccc1,GI50,786-0,> 100 µM (inactive)
same,GI50,A549,41.9 µM (inactive)
same,GI50,ACHN,52 µM (inactive)
same,GI50,BT-549,> 100 µM (inactive)
same,GI50,CAKI-1,> 100 µM (inactive)
same,GI50,COLO 205,> 100 µM (inactive)
same,GI50,DU-145,> 100 µM (inactive)
same,GI50,EKVX,> 100 µM (inactive)
same,GI50,HCC 2998,> 100 µM (inactive)
same,GI50,HCT-15,65.2 µM
same,GI50,HOP-62,> 100 µM (inactive)
same,GI50,HOP-92,> 100 µM (inactive)
same,GI50,HT-29,> 100 µM (inactive)
same,GI50,Hs-578T,> 100 µM (inactive)
same,GI50,IGROV-1,> 100 µM (inactive)
same,GI50,K562,30.1 µM (inactive)
same,GI50,KM12,> 100 µM (inactive)
same,GI50,M14,> 100 µM (inactive)
same,GI50,MCF7,> 100 µM (inactive)
same,GI50,MDA-MB-231,39.8 µM (inactive)
same,GI50,MDA-MB-435,> 100 µM (inactive)
same,GI50,MDA-N,52.7 µM (inactive)
same,GI50,MOLT-4,19.5 µM (inactive)
same,GI50,Malme-3M,> 100 µM (inactive)
same,GI50,NCI-H226,> 100 µM (inactive)
same,GI50,NCI-H23,> 100 µM (inactive)
same,GI50,NCI-H460,72.1 µM (inactive)
same,GI50,NCI-H522,9.06 µM (inactive)
same,GI50,NCI/ADR-RES,> 100 µM (inactive)
same,GI50,OVCAR-3,> 100 µM (inactive)
same,GI50,OVCAR-5,> 100 µM (inactive)
same,GI50,OVCAR-8,65.5 µM (inactive)
same,GI50,PC-3,40.6 µM (inactive)
same,GI50,RPMI-8226,> 100 µM (inactive)
same,GI50,RXF 393,> 100 µM (inactive)
same,GI50,SF-268,> 100 µM (inactive)
same,GI50,SF-295,> 100 µM (inactive)
same,GI50,SF-539,> 100 µM (inactive)
same,GI50,SK-MEL-28,> 100 µM (inactive)
same,GI50,SK-MEL-2,> 100 µM (inactive)
same,GI50,SK-MEL-5,> 100 µM (inactive)
same,GI50,SK-OV-3,> 100 µM (inactive)
same,GI50,SN12C,> 100 µM (inactive)
same,GI50,SNB-19,> 100 µM (inactive)
same,GI50,SNB-75,24.4 µM (inactive)
same,GI50,SR,20.6 µM (inactive)
same,GI50,SW-620,> 100 µM (inactive)
same,GI50,T47D,> 100 µM (inactive)
same,GI50,TK-10,> 100 µM (inactive)
same,GI50,U-251,44.8 µM (inactive)
same,GI50,UACC-257,> 100 µM (inactive)
same,GI50,UACC-62,97.5 µM (inactive)
same,GI50,UO-31,> 100 µM (inactive)
C/C1=C\CC[C@@]2(C)O[C@@H]2C[C@@H]2[C@H](C/C(C)=C/CC1)OC(=O)C21CCN=N1 (some centres undefined),GI50,786-0,> 75 µM (inactive)
same,GI50,A498,> 100 µM (inactive)
same,GI50,A549,51.2 µM (inactive)
same,GI50,ACHN,35.3 µM (inactive)
same,GI50,BT-549,> 75 µM (inactive)
same,GI50,CAKI-1,> 75 µM (inactive)
same,GI50,CCRF-CEM,15 µM (inactive)
same,GI50,COLO 205,> 75 µM (inactive)
same,GI50,DU-145,> 75 µM (inactive)
same,GI50,EKVX,> 75 µM (inactive)
same,GI50,HCC 2998,> 75 µM (inactive)
same,GI50,HCT-116,> 75 µM (inactive)
same,GI50,HCT-15,> 75 µM
same,GI50,HL-60,37.2 µM (inactive)
same,GI50,HOP-62,27.9 µM (inactive)
same,GI50,HOP-92,> 75 µM (inactive)
same,GI50,HT-29,> 75 µM (inactive)
same,GI50,Hs-578T,38 µM (inactive)
same,GI50,IGROV-1,> 75 µM (inactive)
same,GI50,K562,6.98 µM (inactive)
same,GI50,KM12,> 75 µM (inactive)
same,GI50,LOX IMVI,21 µM (inactive)
same,GI50,M14,> 75 µM (inactive)
same,GI50,MCF7,> 75 µM (inactive)
same,GI50,MDA-MB-231,> 75 µM (inactive)
same,GI50,MDA-MB-435,> 75 µM (inactive)
same,GI50,MDA-N,> 75 µM (inactive)
same,GI50,MOLT-4,16 µM (inactive)
same,GI50,Malme-3M,> 75 µM (inactive)
same,GI50,NCI-H226,> 100 µM (inactive)
same,GI50,NCI-H23,> 75 µM (inactive)
same,GI50,NCI-H460,39.6 µM (inactive)
same,GI50,NCI-H522,72.4 µM (inactive)
same,GI50,NCI/ADR-RES,> 75 µM (inactive)
same,GI50,OVCAR-3,> 75 µM (inactive)
same,GI50,OVCAR-4,61.8 µM (inactive)
same,GI50,OVCAR-5,> 75 µM (inactive)
same,GI50,OVCAR-8,> 75 µM (inactive)
same,GI50,PC-3,> 75 µM (inactive)
same,GI50,RPMI-8226,31.3 µM (inactive)
same,GI50,RXF 393,> 75 µM (inactive)
same,GI50,SF-268,> 75 µM (inactive)
same,GI50,SF-295,32.4 µM (inactive)
same,GI50,SF-539,> 75 µM (inactive)
same,GI50,SK-MEL-28,> 75 µM (inactive)
same,GI50,SK-MEL-2,> 75 µM (inactive)
same,GI50,SK-MEL-5,34.9 µM (inactive)
same,GI50,SK-OV-3,> 75 µM (inactive)
same,GI50,SN12C,37.8 µM (inactive)
same,GI50,SNB-19,> 75 µM (inactive)
same,GI50,SNB-75,25.9 µM (inactive)
same,GI50,SW-620,> 75 µM (inactive)
same,GI50,T47D,> 100 µM (inactive)
same,GI50,TK-10,> 75 µM (inactive)
same,GI50,U-251,> 75 µM (inactive)
same,GI50,UACC-257,> 75 µM (inactive)
same,GI50,UACC-62,> 75 µM (inactive)
same,GI50,UO-31,> 75 µM (inactive)
